# Results reported in BindingDB's records for doi:10.1016/j.bmc.2007.07.054 (Yeungnam University, 2007).
# pIC50: −log10 of the molar value.
# Experiments:
# [1] = target: T1, Group 10 secretory phospholipase A2 (Homo sapiens, UniProt O15496); test: Inhibition of human cloned sPLA2-10 expressed in HEK293 cells
# T1 sequence (O15496 whole entry): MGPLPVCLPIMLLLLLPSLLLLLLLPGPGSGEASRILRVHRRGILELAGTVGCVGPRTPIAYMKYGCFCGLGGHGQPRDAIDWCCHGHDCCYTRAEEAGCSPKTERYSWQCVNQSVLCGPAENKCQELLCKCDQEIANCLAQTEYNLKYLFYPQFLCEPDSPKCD
# [2] = target: Phospholipase A2 (Rattus norvegicus, UniProt P04055); test: Inhibition of rat cloned sPLA2-1B expressed in HEK293 cells
# Sequence of Phospholipase A2 (P04055 whole entry): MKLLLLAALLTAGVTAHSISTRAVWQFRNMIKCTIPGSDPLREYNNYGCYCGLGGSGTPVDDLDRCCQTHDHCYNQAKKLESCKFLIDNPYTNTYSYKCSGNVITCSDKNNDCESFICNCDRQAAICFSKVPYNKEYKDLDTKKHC
# [3] = target: T2, Cytosolic phospholipase A2 (Homo sapiens, UniProt P47712); test: Inhibition of human cloned cPLA2 expressed in HEK293 cells
# T2 sequence (P47712 whole entry): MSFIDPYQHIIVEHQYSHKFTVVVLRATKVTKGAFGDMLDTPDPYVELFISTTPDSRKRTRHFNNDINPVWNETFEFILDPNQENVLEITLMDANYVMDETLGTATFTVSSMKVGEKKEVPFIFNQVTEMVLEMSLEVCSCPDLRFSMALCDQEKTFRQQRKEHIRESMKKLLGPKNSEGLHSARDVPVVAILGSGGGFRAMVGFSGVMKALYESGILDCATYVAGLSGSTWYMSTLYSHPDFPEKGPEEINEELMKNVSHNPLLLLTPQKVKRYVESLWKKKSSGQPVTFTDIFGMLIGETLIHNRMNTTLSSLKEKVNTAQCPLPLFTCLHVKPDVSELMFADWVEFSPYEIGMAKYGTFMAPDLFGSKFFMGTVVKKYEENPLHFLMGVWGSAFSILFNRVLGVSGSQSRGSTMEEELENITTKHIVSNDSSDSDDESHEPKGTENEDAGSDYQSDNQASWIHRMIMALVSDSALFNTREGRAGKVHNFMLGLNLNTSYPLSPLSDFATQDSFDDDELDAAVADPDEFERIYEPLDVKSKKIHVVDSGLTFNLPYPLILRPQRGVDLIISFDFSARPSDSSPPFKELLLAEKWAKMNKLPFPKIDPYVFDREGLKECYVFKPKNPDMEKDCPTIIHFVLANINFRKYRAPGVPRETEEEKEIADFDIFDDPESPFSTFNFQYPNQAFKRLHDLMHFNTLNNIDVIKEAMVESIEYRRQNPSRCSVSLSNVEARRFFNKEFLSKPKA
pIC50 [1],pIC50 [2],pIC50 [3],SMILES
< 4.00,< 4.00,< 4.00,O=c1cc(O)cc2oc(-c3ccc(O)c(-c4c(O)cc(O)c5c(=O)cc(-c6ccc(O)cc6)oc45)c3)cc(O)c1-2
< 4.00,< 4.00,< 4.00,O=c1cc(O)cc2oc(-c3ccc(Oc4cc(-c5cc(O)c6c(=O)cc(O)cc-6o5)ccc4O)cc3)cc(O)c1-2
